Laboratory results from patent US20230086703A1, “N-(4-(5-chloropyridin-3-yl)phenyl)-2-(2-(cyclopropanesulfonamido)pyrimidin-4-yl) butanamide derivatives and related compounds as human CTPS1 inhibitors for the treatment of proliferative diseases” (Step Pharma S.A.S., priority 2019, published 2023).

Molecular target: T1, human CTPS1 (Homo sapiens, UniProt P17812)
T1 construct: FLAG (with GG linker); His8 (with GG linker); purchased Proteros biostructures GmbH
T1 sequence (P17812 1-591): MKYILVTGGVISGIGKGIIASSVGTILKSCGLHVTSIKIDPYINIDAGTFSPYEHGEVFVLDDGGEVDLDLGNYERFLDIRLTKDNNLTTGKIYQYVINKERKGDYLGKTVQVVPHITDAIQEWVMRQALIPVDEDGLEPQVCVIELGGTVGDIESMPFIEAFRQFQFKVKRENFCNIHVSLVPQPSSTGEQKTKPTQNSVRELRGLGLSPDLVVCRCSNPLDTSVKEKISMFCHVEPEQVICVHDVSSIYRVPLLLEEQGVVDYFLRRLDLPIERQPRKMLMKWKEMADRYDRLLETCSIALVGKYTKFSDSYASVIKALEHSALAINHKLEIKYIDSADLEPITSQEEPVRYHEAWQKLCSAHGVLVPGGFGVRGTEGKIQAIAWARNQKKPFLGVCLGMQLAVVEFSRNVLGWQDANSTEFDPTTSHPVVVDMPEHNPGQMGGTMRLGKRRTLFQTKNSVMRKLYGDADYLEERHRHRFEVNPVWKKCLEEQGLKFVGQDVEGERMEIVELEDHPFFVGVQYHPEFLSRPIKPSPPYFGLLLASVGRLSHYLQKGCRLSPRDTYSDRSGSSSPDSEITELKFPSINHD
Experiment: RapidFire/MS-based enzyme selectivity assay (human CTPS1 versus CTPS2), CTPS1 isoform
Format: biochemical
Method: Human CTPS1 Versus CTPS2 Selectivity Assessment by RapidFire/MS Analysis.
The enzyme inhibitory activities against each target isoform of interest may be determined for the compounds of the invention using an optimised RapidFire high-throughput mass spectrometry (RF/MS) assay format. RF/MS assays for both human CTPS1 and CTPS2 may be performed in assay buffer consisting of 50 mM HEPES (Merck), 20 mM MgCl2, 5 mM KCl, 1 mM DTT, 0.01% Tween-20, pH to 8.0 accordingly. Human full-length active C-terminal FLAG-His-tag CTPS1 (UniProtKB—P17812, CTPS1[1-591]-[…] (CTPS1[1-591]-SEQ ID NO: 1)) may be obtained from Proteros biostructures GmbH. Human full length active C-terminal FLAG-His-Avi tagged CTPS2 (UniProtKB—Q9NRF8, CTPS2 [1-586]-[…] (CTPS2 [1-586]—SEQ ID NO: 2)) may be obtained from Harker Bio.
Human CTPS (1 or 2) protein may be prepared in 1× assay buffer to the final working protein concentration required for the reaction. A 2 uL volume per well of 2×CTPS (1 or 2) protein may be mixed with 40 nL of compound using acoustic (ECHO) delivery and incubated for 10 minutes at 25° C. Each isoform enzymatic reaction may be subsequently initiated by addition of 2 uL per well of a 2× substrate mix in assay buffer. For hCTPS1: ATP (0.3 mM), UTP (0.2 mM), GTP (0.07 mM) and L-glutamine (0.1 mM). For hCTPS2: ATP (0.1 mM), UTP (0.04 mM), GTP (0.03 mM) and L-glutamine (0.1 mM). Each mixture may be incubated for an appropriate amount of time per isoform within the determined linear phase of the reaction at 25° C. A 80 uL volume of stop solution (1% formic acid with 0.5 uM ^13C9-^15N3-CTP in H2O) may be added and the plate immediately heat-sealed and centrifuged for 10 minutes at 4,000 rpm. Following centrifugation, plates may be loaded onto the Agilent RapidFire microfluidic solid phase extraction system coupled to an API4000 triple quadrupole mass spectrometer (RF/MS) for analysis.
In all cases, the enzyme converts UTP to CTP. Highly specific and sensitive multiple reaction monitoring (MRM) MS methods may be optimised for the detection of the enzymatic reaction product, CTP, and the stable isotope labelled product standard ^13C9-^15N3-CTP. Readout for data analysis may be calculated as the ratio between the peak area of the product CTP and the internal standard ^13C9-^15N3-CTP. For data reporting, the following equation may be used:
(R=ratio/readout, P=product signal area, IS=internal standard signal area)
For each screening plate, the means of the negative (DMSO) and positive control values were used for the calculation of the respective assay window (S/B) and Z′ values. The median of the respective control values was used for calculation of percent inhibition according to the following equation:
(I=Inhibition, Rneq=median of negative control readout values, Rpos=median of positive control readout values, Rsample=sample readout value)
Percentage inhibition was then plotted against compound concentration, and the 50% inhibitory concentration (IC50) was determined from the resultant concentration-response curve.
Fold selectivity between CTPS1 and CTPS2 was subsequently calculated according to the following equation: […]

[1] = Table 16, human CTPS1 over human CTPS2, RapidFire/MS IC50 values
[2] = RapidFire/MS IC50 values of CTPS1 and CTPS2, Table 15
[3] = RapidFire/MS IC50 values of CTPS1 and CTPS2, Table 17

Row | Selectivity (fold selectivity between CTPS1 and CTPS2) [1] | Selectivity (fold selectivity between CTPS1 and CTPS2) [2] | SMILES | also measured
1 | ++ (>30-60 fold (++)) | – | CC(C)(NC(=O)c1ccc(-c2cncc(C(F)(F)F)n2)cc1)c1csc(NS(=O)(=O)C2CC2)n1 [R51, N-(2-(2-(cyclopropanesulfon-amido)thiazol-4-yl)propan-2-yl)-4-(6-(trifluoromethyl)pyrazin-2-yl)benzamide] | –
2 | + (2-30 fold (+)) | – | Cc1cc(-c2cncc(C(F)(F)F)n2)ccc1C(=O)NC(C)(C)c1nc(NS(=O)(=O)C2CC2)sc1C [R76, N-(2-(2-(cyclopropanesulfon-amido)-5-methylthiazol-4-yl)propan-2-yl)-2-methyl-4-(6-(trifluoromethyl)pyrazin-2-yl)benzamide] | –
3 | + (2-30 fold (+)) | – | CC(C)(NC(=O)c1ccc(-c2cncc(C(F)(F)F)n2)cc1)c1nc(NS(=O)(=O)C2CC2)sc1Cl [R79, N-(2-(5-chloro-2-(cycloprop-anesulfonamido)thiazol-4-yl)propan-2-yl)-4-(6-(trifluoromethyl)pyrazin-2-yl)benzamide] | –
4 | ++ (>30-60 fold (++)) | – | CCc1cncc(-c2ccc(C(=O)NC(C)(C)c3csc(NS(=O)(=O)C4CC4)n3)c(F)c2)n1 [R41, N-(2-(2-(cyclopropanesulfon-amido)thiazol-4-yl)propan-2-yl)-4-(6-ethylpyrazin-2-yl)-2-fluorobenzamide] | –
5 | + (2-30 fold (+)) | – | CCOc1cncc(-c2ccc(C(=O)NC(C)(C)c3nc(NS(=O)(=O)C4CC4)sc3Cl)nc2)n1 [R73] | –
6 | ++ (>30-60 fold (++)) | – | CC(C)(NC(=O)c1ccc(-c2cncc(C(F)(F)F)n2)cc1F)c1csc(NS(=O)(=O)C2CC2)n1 [R42, N-(2-(2-(cyclopropanesulfonamido)thiazol-4-yl)propan-2-yl)-2-fluoro-4-(6-(trifluoromethyl)pyrazin-2-yl)benzamide] | –
7 | + (2-30 fold (+)) | – | CCOc1cncc(-c2ccc(C(=O)NC(C)(C)c3csc(NS(=O)(=O)C4CC4)n3)c(C(F)(F)F)c2)n1 [R47, N-(2-(2-(cyclopropanesulfonamido)thiazol-4-yl)propan-2-yl)-4-(6-ethoxypyrazin-2-yl)-2-(trifluoromethyl)benzamide] | –
8 | +++ (>60 fold (+++)) | – | CCOc1cncc(-c2ccc(C(=O)NC(C)(C)c3csc(NS(=O)(=O)C4CC4)n3)nc2)n1 [R26, N-(2-(2-(cyclopropanesulfon-amido)thiazol-4-yl)propan-2-yl)-5-(6-ethoxypyrazin-2-yl)picolinamide] | –

Second part, the compound before the results:

Row | SMILES | Selectivity (fold selectivity between CTPS1 and CTPS2) [1] | Selectivity (fold selectivity between CTPS1 and CTPS2) [2] | also measured
9 | CCC(NC(=O)c1ccc(-c2cncc(F)c2)cc1)c1csc(NS(=O)(=O)C2CC2)n1 (single isomer, unassigned) [R68, N-(1-(2-(cyclopropanesulfon-amido)thiazol-4-yl)propyl)-4-(5-fluoropyridin-3-yl)benzamide] | ++ (>30-60 fold (++)) | – | –
10 | CC(C)Oc1cncc(-c2ccc(NC(=O)Cc3ccnc(NS(=O)(=O)C4CC4)n3)cc2)n1 [P21, 2-(2-(cyclopropanesulfonamido)pyrimidin-4-yl)-N-(4-(6-isopropoxypyrazin-2-yl)phenyl)acetamide] | – | ++ (>30-60 fold (++)) | –
11 | CC(C)Oc1cncc(-c2ccc(C(=O)NC(C)(C)c3cncc(NS(=O)(=O)C4CC4)n3)c(F)c2)n1 [P221, N-(2-(6-(cyclopropanesulfonamido)pyrazin-2-yl)propan-2-yl)-2-fluoro-4-(6-isopropoxypyrazin-2-yl)benzamide] | – | + (2-30 fold (+)) | –
12 | CCOc1cncc(-c2ccc(C(=O)NC3(c4csc(NS(=O)(=O)C5CC5)n4)CC3)c(F)c2)n1 [R82, N-(1-(2-(cyclopropanesulfon-amido)thiazol-4-yl)cyclo-propyl)-4-(6-ethoxypyrazin-2-yl)-2-fluorobenzamide] | +++ (>60 fold (+++)) | – | –
13 | CCC(C(=O)Nc1ccc(-c2cncc(OC)n2)cc1F)c1ccnc(NS(=O)(=O)C2CC2)n1 (stereo not drawn) [P95, 2-(2-(cyclopropanesulfonamido)pyrimidin-4-yl)-N-(2-fluoro-4-(6-methoxypyrazin-2-yl)phenyl)butanamide] | – | + (2-30 fold (+)) | –
14 | CCOc1cncc(-c2ccc(NC(=O)Cc3ccnc(NS(=O)(=O)C4CC4)n3)cc2)n1 [P18, 2-(2-(cyclopropanesulfonamido)pyrimidin-4-yl)-N-(4-(6-ethoxypyrazin-2-yl)phenyl)acetamide] | – | ++ (>30-60 fold (++)) | –
15 | CCOc1cncc(-c2ccc(C(=O)NC3(c4csc(NS(=O)(=O)C5CC5)n4)CC3)nc2)n1 [R80, N-(1-(2-(cyclopropanesulfon-amido)thiazol-4-yl)cyclo-propyl)-5-(6-ethoxypyrazin-2-yl)picolinamide] | +++ (>60 fold (+++)) | – | –
16 | CCOc1cncc(-c2ccc(NC(=O)C(CCOC)c3ccnc(NS(=O)(=O)C4CC4)n3)c(F)c2)n1 (stereo not drawn) [P146, 2-(2-(cyclopropanesulfonamido)pyrimidin-4-yl)-N-(4-(6-ethoxypyrazin-2-yl)-2-fluorophenyl)-4-methoxybutanamide] | – | +++ (>60 fold (+++)) | –
17 | CCC(C(=O)Nc1ccc(-c2cncc(OCC(F)(F)F)n2)cc1)c1ccnc(NS(=O)(=O)C2CC2)n1 (stereo not drawn) [P108, 2-(2-(cyclopropanesulfonamido)pyrimidin-4-yl)-N-(4-(9-(2,2,2-trifluoroethoxy)pyrazin-2-yl)phenyl)butanamide] | – | +++ (>60 fold (+++)) | –
18 | CCOc1cncc(-c2ccc(NC(=O)C3(c4ccnc(NS(=O)(=O)C5CC5)n4)CCCC3)cc2)n1 [P2, 1-(2-(Cyclopropanesulfonamido)pyrimidin-4-yl)-N-(4-(6-ethoxypyrazin-2-yl)phenyl)cyclopentanecarboxamide] | – | +++ (>60 fold (+++)) | –
19 | CCOc1cncc(-c2ccc(NC(=O)C3(c4ccnc(NS(=O)(=O)C5CC5)n4)CCC(O)CC3)nc2)n1 (single isomer, unassigned) [P227, 1-(2-(cydopropanesulfonamido)pyrimidin-4-yl)-N-(5-(6-ethoxypyrazin-2-yl)pyridin-2-yl)-4-hydroxycyclohexanecarboxamide] | – | – | Selectivity (fold selectivity between CTPS1 and CTPS2) [3]: +++ (>60 fold (+++))
20 | CCc1cncc(-c2ccc(C(=O)NC(CCOC)c3csc(NS(=O)(=O)C4CC4)n3)c(F)c2)n1 (stereo not drawn) [R86, N-(1-(2-(cyclopropanesulfon-amido)thiazol-4-yl)-3-methoxypropyl)-4-(6-ethyl-pyrazin-2-yl)-2-fluorobenzamide] | +++ (>60 fold (+++)) | – | –
21 | CCOc1cncc(-c2ccc(NC(=O)C3(c4ccnc(NS(=O)(=O)C5CC5)n4)CCC(=O)CC3)nc2)n1 [P226, 1-(2-(Cydopropanesulfonamido)pyrimidin-4-yl)-N-(5-(6-ethoxypyrazin-2-yl)pyridin-2-yl)-4-oxocyclohexanecarboxamide] | – | – | Selectivity (fold selectivity between CTPS1 and CTPS2) [3]: +++ (>60 fold (+++))
